In the first assay the target is hBTK (full-length BTK, 6HIS-tag cleaved) (Homo sapiens (Human), UniProt Q06187). In words: BTK enzymatic activity, LANCE TR-FRET assay (Assay Method C). Type of assay: biochemical. Particulars: LANCE TR-FRET, 50 pM hBTK, 25 μM ATP; class 100-1000 is given as ≧100 nM-<1 μM; read-out: IC50 Btk activity values - Assay Method C.
Chain of Btk enzyme (His-Btk) (Q06187 whole entry): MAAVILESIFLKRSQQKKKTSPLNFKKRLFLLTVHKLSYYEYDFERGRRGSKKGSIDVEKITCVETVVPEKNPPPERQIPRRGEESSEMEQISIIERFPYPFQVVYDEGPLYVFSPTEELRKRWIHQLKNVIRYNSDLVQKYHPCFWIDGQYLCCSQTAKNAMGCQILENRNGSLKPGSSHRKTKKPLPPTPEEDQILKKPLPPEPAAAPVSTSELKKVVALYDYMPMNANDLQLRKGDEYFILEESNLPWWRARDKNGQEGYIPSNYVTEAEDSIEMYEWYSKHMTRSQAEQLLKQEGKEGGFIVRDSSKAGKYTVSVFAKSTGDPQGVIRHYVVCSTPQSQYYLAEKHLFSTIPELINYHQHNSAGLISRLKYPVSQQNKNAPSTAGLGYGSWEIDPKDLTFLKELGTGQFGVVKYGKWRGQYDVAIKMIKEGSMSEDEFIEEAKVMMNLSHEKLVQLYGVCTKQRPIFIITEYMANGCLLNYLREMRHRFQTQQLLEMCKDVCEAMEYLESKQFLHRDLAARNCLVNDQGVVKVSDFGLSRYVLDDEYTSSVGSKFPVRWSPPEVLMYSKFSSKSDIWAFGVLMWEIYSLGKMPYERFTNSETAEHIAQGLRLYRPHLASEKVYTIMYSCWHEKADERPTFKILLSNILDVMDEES
Chain of hBTK (full-length BTK, 6HIS-tag cleaved) (Q06187 whole entry): as above
For the compound `COc1ccc(NC(=O)c2ccc(-c3nc([C@@H]4CCCN(C(=O)C5(C)COC5)C4)n4ccnc(N)c34)cc2)nc1` [Example 325, (R)-4-(8-amino-3-(1-(3-methyloxetane-3-carbonyl)piperidin-3-yl)imidazo[1,5-a]pyrazin-1-yl)-N-(5-methoxypyridin-2-yl)benzamide], the IC50 lay in the range of 10 to 100 nM.

Take `CC1(C(=O)N2CCC[C@@H](c3nc(-c4ccc(C(=O)Nc5ccc(C#N)cn5)cc4)c4c(N)nccn34)C2)COC1` [Example 327, 4-(8-amino-3-{(3R)-1-[(3-methyloxetan-3-yl)carbonyl]piperidin-3-yl}imidazo[1,5-a]pyrazin-1-yl)-N-(5-cyanopyridin-2-yl)benzamide]: the IC50 was under 10 nM.

For `Cc1noc(C)c1C(=O)N1CCC[C@@H](c2nc(-c3ccc(C(=O)Nc4cc(C(F)(F)F)ccn4)cc3)c3c(N)nccn23)C1` [Example 328], the IC50 was under 10 nM.

With `CC(C)N1CC(C(=O)N2CCC[C@@H](c3nc(-c4ccc(C(=O)Nc5cc(C(F)(F)F)ccn5)cc4)c4c(N)nccn34)C2)C1` [Example 329, 4-{8-amino-3-[(3R)-1-{[1-(1-methylethyl)azetidin-3-yl]carbonyl}piperidin-3-yl]imidazo[1,5-a]pyrazin-1-yl}-N-[4-(trifluoromethyl)pyridin-2-yl]benzamide], the IC50 was under 10 nM.

Turning to `Nc1nccn2c([C@@H]3CCCN(C(=O)c4cnsn4)C3)nc(-c3ccc(C(=O)Nc4cc(C(F)(F)F)ccn4)cc3)c12` [Example 330, 4-{8-amino-3-[(3R)-1-(1,2,5-thiadiazol-3-ylcarbonyl)piperidin-3-yl]imidazo[1,5-a]pyrazin-1-yl}-N-[4-(trifluoromethyl)pyridin-2-yl]benzamide], the IC50 was under 10 nM.

On to `Nc1nccn2c([C@@H]3CCCN(C(=O)CCC(F)(F)F)C3)nc(-c3ccc(C(=O)Nc4cc(C(F)(F)F)ccn4)cc3)c12` [Example 331, 4-{8-amino-3-[(3R)-1-(4,4,4-trifluorobutanoyl)piperidin-3-yl]imidazo[1,5-a]pyrazin-1-yl}-N-[4-(trifluoromethyl)pyridin-2-yl]benzamide], for which the IC50 was under 10 nM.

Consider `Nc1nccn2c([C@@H]3CCCN(C(=O)CC(F)(F)F)C3)nc(-c3ccc(C(=O)Nc4cc(C(F)(F)F)ccn4)cc3)c12` [Example 332, 4-{8-amino-3-[(3R)-1-(3,3,3-trifluoropropanoyl)piperidin-3-yl]imidazo[1,5-a]pyrazin-1-yl}-N-[4-(trifluoromethyl)pyridin-2-yl]benzamide], for which the IC50 was under 10 nM.

With `Nc1nccn2c([C@@H]3CCCN(C(=O)c4cnsc4)C3)nc(-c3ccc(C(=O)Nc4cc(C(F)(F)F)ccn4)cc3)c12` [Example 333, 4-{8-amino-3-[(3R)-1-(isothiazol-4-ylcarbonyl)piperidin-3-yl]imidazo[1,5-a]pyrazin-1-yl}-N-[4-(trifluoromethyl)pyridin-2-yl]benzamide], the half-inhibitory concentration (IC50) is under 10 nM.

Regarding `COCC1(C(=O)N2CCC[C@@H](c3nc(-c4ccc(C(=O)Nc5cc(C(F)(F)F)ccn5)cc4)c4c(N)nccn34)C2)CC1` [Example 334, 4-{8-amino-3-[(3R)-1-{[1-(methoxymethyl)cyclopropyl]carbonyl}piperidin-3-yl]imidazo[1,5-a]pyrazin-1-yl}-N-[4-(trifluoromethyl)pyridin-2-yl]benzamide], the IC50 is under 10 nM.

Consider `N#CC1(C(=O)N2CCC[C@@H](c3nc(-c4ccc(C(=O)Nc5cc(C(F)(F)F)ccn5)cc4)c4c(N)nccn34)C2)CC1` [Example 335, 4-(8-amino-3-{(3R)-1-[(1-cyanocyclopropyl)carbonyl]piperidin-3-yl}imidazo[1,5-a]pyrazin-1-yl)-N-[4-(trifluoromethyl)pyridin-2-yl]benzamide], for which the half-maximal inhibitory concentration (IC50) was under 10 nM.

For `Nc1nccn2c([C@@H]3CCCN(C(=O)c4cnccn4)C3)nc(-c3ccc(C(=O)Nc4cc(C(F)(F)F)ccn4)cc3)c12` [Example 336, 4-{8-amino-3-[(3R)-1-(pyrazin-2-ylcarbonyl)piperidin-3-yl]imidazo[1,5-a]pyrazin-1-yl}-N-[4-(trifluoromethyl)pyridin-2-yl]benzamide], the IC50 is under 10 nM.

For the compound `Nc1nccn2c([C@@H]3CCCN(C(=O)[C@@H]4CC(F)(F)CN4)C3)nc(-c3ccc(C(=O)Nc4cc(C(F)(F)F)ccn4)cc3)c12` [Example 337, 4-{8-amino-3-[(3R)-1-(4,4-difluoro-L-prolyl)piperidin-3-yl]imidazo[1,5-a]pyrazin-1-yl}-N-[4-(trifluoromethyl)pyridin-2-yl]benzamide], the IC50 is under 10 nM.

A further assay has as its target Btk enzyme (His-Btk) (Homo sapiens (Human), UniProt Q06187). As to the kind of experiment: Btk enzyme activity, IMAP fluorescence polarization assay (Assay Method A).
Details: not given
In general terms: Polarisation of emitted light reports the rotation of a fluorescent probe.
Compound `COC(=O)c1cnc(N)c2c(-c3ccc(C(=O)Nc4cc(C(F)(F)F)ccn4)cc3)nc(C)n12` [Example 312, methyl 8-amino-3-methyl-1-(4-(4-(trifluoromethyl)pyridin-2-ylcarbamoyl)phenyl)imidazo[1,5-a]pyrazine-5-carboxylate] gave an EC50 of 10 to 100 nM.

`[2H]C([2H])([2H])c1cnc(N)c2c(-c3ccc(C(=O)Nc4cc(C(F)(F)F)ccn4)cc3)nc([C@@H]3CCCN(C(=O)C4(C)COC4)C3)n12` [Example 317, (R)-4-(8-amino-5-deuteromethyl-3-(1-(3-methyloxetane-3-carbonyl)piperidin-3-yl)imidazo[1,5-a]pyrazin-1-yl)-N-(4-(trifluoromethyl)pyridin-2-yl)benzamide] yielded an EC50 of under 10 nM.

For `COc1cccc(-c2cnc(N)c3c(-c4ccc(C(=O)Nc5cc(C(F)(F)F)ccn5)cc4)nc([C@@H]4CCCN(C(=O)C5(C)COC5)C4)n23)c1` [Example 320, (R)-4-(8-amino-5-(3-methoxyphenyl)-3-(1-(3-methyloxetane-3-carbonyl)piperidin-3-yl)imidazo[1,5-a]pyrazin-1-yl)-N-(4-(trifluoromethyl)pyridin-2-yl)benzamide], the EC50 fell in the range of 10 to 100 nM.

As to `CC1(C(=O)N2CCC[C@@H](c3nc(-c4ccc(C(=O)Nc5cc(C(F)(F)F)ccn5)cc4)c4c(N)ncc(-c5ccccc5)n34)C2)COC1` [Example 321, (R)-4-(8-amino-3-(1-(3-methyloxetane-3-carbonyl)piperidin-3-yl)-5-phenylimidazo[1,5-a]pyrazin-1-yl)-N-(4-(trifluoromethyl)pyridin-2-yl)benzamide], the EC50 was 10 to 100 nM.

The compound `CC1(C(=O)N2CCC[C@@H](c3nc(-c4ccc(C(=O)Nc5cc(C(F)(F)F)ccn5)cc4)c4c(N)ncc(C5=CCOCC5)n34)C2)COC1` [Example 322, (R)-4-(8-amino-5-(3,6-dihydro-2H-pyran-4-yl)-3-(1-(3-methyloxetane-3-carbonyl)piperidin-3-yl)imidazo[1,5-a]pyrazin-1-yl)-N-(4-(trifluoromethyl)pyridin-2-yl)benzamide] had an EC50 of 10 to 100 nM.

Compound `Cc1nc(-c2ccc(C(=O)Nc3cc(C(F)(F)F)ccn3)cc2)c2c(N)ncc(C(O)CC(C)C)n12` (stereo not shown) [Example 323, 4-(8-amino-5-(1-hydroxy-3-methylbutyl)-3-methylimidazo[1,5-a]pyrazin-1-yl)-N-(4-(trifluoromethyl)pyridin-2-yl)benzamide] gave an EC50 of 10 to 100 nM.

The assay is the same for the next values; noted with them: read-out: EC50 Btk activity values - Assay Method A; IMAP-FP, 60 min pre-incubation, 5 μM ATP; class 100-1000 is given as ≧100 nM-<1 μM.
For the compound `CC1(C(=O)N2CCC[C@@H](c3nc(-c4ccc(C(=O)Nc5cc(C(F)(F)F)ccn5)cc4)c4c(N)ncc(-c5ccco5)n34)C2)COC1` [Example 311, (R)-4-(8-amino-5-(furan-2-yl)-3-(1-(3-methyloxetane-3-carbonyl)piperidin-3-yl)imidazo[1,5-a]pyrazin-1-yl)-N-(4-(trifluoromethyl)pyridin-2-yl)benzamide], the EC50 is under 10 nM.

Turning to `Nc1ncc(/C=C/c2ccccc2)n2c(C3CCOCC3)nc(-c3ccc(C(=O)Nc4ccccn4)cc3)c12` [Example 313, (E)-4-(8-amino-5-styryl-3-(tetrahydro-2H-pyran-4-yl)imidazo[1,5-a]pyrazin-1-yl)-N-(pyridin-2-yl)benzamide], the EC50 is under 10 nM.

As to `COCCC(=O)N1CCOC(c2nc(-c3ccc(C(=O)Nc4cc(C(F)(F)F)ccn4)cc3)c3c(N)ncc(Cl)n23)C1` (stereo not shown) [Example 314, 4-(8-amino-5-chloro-3-(4-(3-methoxypropanoyl)morpholin-2-yl)imidazo[1,5-a]pyrazin-1-yl)-N-(4-(trifluoromethyl)pyridin-2-yl)benzamide], the 50% effective concentration (EC50) was under 10 nM.

With `CC1(C(=O)N2CCOC(c3nc(-c4ccc(C(=O)Nc5cc(C(F)(F)F)ccn5)cc4)c4c(N)ncc(Cl)n34)C2)COC1` (stereo not shown) [Example 315, 4-(8-amino-5-chloro-3-(4-(3-methyloxetane-3-carbonyl)morpholin-2-yl)imidazo[1,5-a]pyrazin-1-yl)-N-(4-(trifluoromethyl)pyridin-2-yl)benzamide], the EC50 is under 10 nM.

For the compound `Nc1ncc(Cl)n2c(C3CN(C(=O)C4(O)CCC4)CCO3)nc(-c3ccc(C(=O)Nc4cc(C(F)(F)F)ccn4)cc3)c12` (stereo not shown) [Example 316, 4-(8-amino-5-chloro-3-(4-(1-hydroxycyclobutanecarbonyl)morpholin-2-yl)imidazo[1,5-a]pyrazin-1-yl)-N-(4-(trifluoromethyl)pyridin-2-yl)benzamide], the half-maximal effective concentration (EC50) is under 10 nM.

Consider `CC1(C(=O)N2CCC[C@@H](c3nc(-c4ccc(C(=O)Nc5cc(C(F)(F)F)ccn5)cc4)c4c(N)ncc(/C=C/c5ccc(F)cc5)n34)C2)COC1` [Example 318, (R,E)-4-(8-amino-5-(4-fluorostyryl)-3-(1-(3-methyloxetane-3-carbonyl)piperidin-3-yl)imidazo[1,5-a]pyrazin-1-yl)-N-(4-(trifluoromethyl)pyridin-2-yl)benzamide], for which the EC50 was under 10 nM.

As to `CC1(C(=O)N2CCC[C@@H](c3nc(-c4ccc(C(=O)Nc5cc(C(F)(F)F)ccn5)cc4)c4c(N)ncc(CCc5ccccc5)n34)C2)COC1` [Example 319, (R)-4-(8-amino-3-(1-(3-methyloxetane-3-carbonyl)piperidin-3-yl)-5-phenethylimidazo[1,5-a]pyrazin-1-yl)-N-(4-(trifluoromethyl)pyridin-2-yl)benzamide], the EC50 was under 10 nM.

What is called IC50 is the concentration that inhibits the measured activity by half. Usually EC50 stands for the concentration giving half of the maximal effect.

(Values after patent US9718828B2 (MERCK SHARP & DOHME CORP., priority 2011, dated 2017).)
